In one assay the test system is HeLa S3 cells. The assay is described as follows: HeLa S3 cell growth inhibition test (neutral red staining). To be noted: Homo sapiens; HeLa S3, 72 hours culture with compound. The format is cell-based. On the procedure:
Test Example 1: HeLa S3 Cell Growth Inhibition Test
Each 0.1 ml of HeLa S3 cells which had been prepared to 3 x 10^4 cells/ml using a medium consisting of MEM medium, 10% fetal bovine serum, and 2 mM glutamine was distributed in each well of 96 well-microtiter plate.
HeLa S3 was cultured at 37°C for one night in a CO2 incubator, each 0.05 ml of test compounds which had been appropriately diluted with the culture solution was added thereto, and the mixture was cultured at 37°C for 72 hours in a CO2 incubator. Supernatant was removed, each 0.1 ml of the culture solution containing 0.02% neutral red was added to the residue, the mixture was incubated at 37°C for one hour in a CO2 incubator, and the cells were stained. Supernatant was removed and the residue was washed once with physiological saline. Then, the pigment was extracted with 0.001 N hydrochloric acid/30% ethanol and the absorbance at 550 nm was measured by a microplatereader. A concentration of the test compound (IC50) at which the growth of cell is inhibited by 50% was calculated by comparing the absorbance of non-treated cells and that of cells treated with a predetermined concentration of the test compound.

In a further assay the test system is T-Cell Proliferation. The assay is described as follows: T-cell proliferation inhibitory test using mouse mixed lymphocyte reaction (MLR), [3H]-thymidine incorporation. The format is cell-based. To be noted: 72 hours. The procedure: Test Example 5: T-Cell Proliferation Inhibitory Test Using Mouse Mixed Lymphocyte Reaction (MLR)
Spleen was sterilly removed from C3H/He mouse and single cell suspension was prepared. This suspension was irradiated with 2000R X-ray and adjusted into 8 x 10^6 cells/ml. 50 µl of lymph-node cells of BALB/c mouse (containing 2 x 10^5 cells), 50 µl of X-ray irradiated spleen cell suspension of C3H/He mouse (containing 4 x 10^5 cells), and 50 µl of determined concentration of test compound solution were added in each well of 96 well microtiter plate and cultured at 37°C for 72 hours in the CO2 incubator. Eight hours before the end of culture, [^3H]-Thymidine (1.85 KBq) was added. At the end of culture, cells were trapped. on the filter paper by cell harvester and dried. Toluene type scintillator was added and radioactivity of [^3H]-Thymidine incorporated into cells was measured by liquid scintillation counter.
Suppression rate of T-cell proliferation was calculated according to the following equation. Suppression rate (%) =((Radioactivity in control group) - (Radioactivity in test group))/((Radioactivity in control group) - (Radioactivity in X-ray irradiated C3H/He+Radioactivity in Balb/c))× 100 [formula]
A general note: Dividing cells build labelled thymidine or BrdU into new DNA.

Assay [1] deals with anti-Trinitrophenol (TNP) Antibody Production. Put plainly: Effect against anti-trinitrophenol (TNP) antibody production (serum ELISA). The format is in vivo, BALB/c mice. The procedure:
Mice which were used for the effect against delayed type hypersensitivity footpad reaction were bled, the sera were separated by centrifugation at 3000rpm at 4°C for 10 minutes, and then anti-TNP antibody titer was measured. For measuring anti-TNP antibody, enzyme-linked immunosorbent assay (ELISA) was used. […] Peroxidase labeled anti-mouse IgG+IgA+IgM (American Qualex International, Inc.) was added and bound to anti-TNP antibody in culture supernatant which was bound to plate. Orthophenylenediamine (Wako Pure Chemical Industries, Ltd) solution containing hydrogen peroxide (Wako Pure Chemical Industries, Ltd) was added and enzyme reaction was started. After sufficient coloring, coloring reaction was stopped by addition of 10% […] (Wako Pure Chemical Industries, Ltd) and absorbance at 490nm was measured by immunoreader (Intermed Japan, NJ-2000).
Suppression rate of anti-TNP antibody production by test compound was calculated according to the following equation.
For orientation: An ELISA detects its analyte on a solid surface through an enzyme-linked reagent.

Assay [2] concerns Delayed Type Hypersensitivity Footpad Reaction. Put plainly: Effect against delayed type hypersensitivity footpad reaction (TNBS-immunized mice). The format is in vivo, BALB/c mice. The procedure: Male BALB/c mice (8-weeks-old, Charles River Japan Inc.) were immunized by intradermally injection in the dorsal flank of 100 µl of 10mM 2,4,6-trinitrobenzenesulfonic acid (TNBS) in saline. Five mice were used in each group, that is, control group [0.5% methylcellulose containing 10% dimethyl sulfoxide (DMSO)-administered group], Cyclosporine A (Sandoz)-administered group, and test compound-administered group wherein a determined concentration of test compound suspended in 0.5% methylcellulose containing 10% DMSO was administered. Each of Cyclosporine A and test compound was intraperitoneally administered 30 minutes before and once a day for 4 days after immunization. 50 µl of 10mM TNBS was intradermally injected as a challenging antigen 5 days after immunization when antigen-sensitization was developed. Thickness of both footpads of each animal in each dose of test compound-administered group was measured with a dial thickness gauge 18 hours after antigen challenge, and the value of the difference in thickness of left and right footpad (T) was determined. On the other hand, thickness of both footpads in control group was measured, and the value of the difference in thickness of left and right footpad (C) was determined. Suppression rate in footpad reaction was calculated as [(C - T)/C] x 100.

[3] abbreviates: dose 3.0 mg/kg x 5, intraperitoneally.
Where [4] appears, read: dose 10 mg/kg x 5, intraperitoneally.

pIC50: −log10 of the molar value.

Data on 23 compounds can be found in patent publication EP0812825B1, “PROPENONE DERIVATIVES” (KYOWA HAKKO KOGYO CO., LTD., priority 1995, dated 1997).

One may read the pIC50 as −log10 of the IC50, conventionally taken in molar units.

In the case of `CO/C(=C\c1c[nH]c2ccccc12)C(=O)c1cc(OC)c(OC)c(OC)c1` [Compound 1, (Z)-3-(Indol-3-yl)-2-methoxy-1-(3,4,5-trimethoxyphenyl)-2-propen-1-one], the pIC50 in the assay on HeLa S3 cells is 8.62.

For the compound `CCO/C(=C\c1c[nH]c2ccccc12)C(=O)c1cc(OC)c(OC)c(OC)c1` [Compound 2, (Z)-2-Ethoxy-3-(indol-3-yl)-1-(3,4,5-trimethoxyphenyl)-2-propen-1-one], the pIC50 with HeLa S3 cells was 8.60.

`CCCO/C(=C\c1c[nH]c2ccccc12)C(=O)c1cc(OC)c(OC)c(OC)c1` [Compound 3, (Z)-3-(Indol-3-yl)-2-propyloxy-1-(3,4,5-trimethoxyphenyl)-2-propen-1-one]: in the assay with HeLa S3 cells, the pIC50 is 7.89.

For the compound `COc1cc(C(=O)/C(=C/c2c[nH]c3ccccc23)OC(C)C)cc(OC)c1OC` [Compound 4, (Z)-2-Isopropyloxy-3-(indol-3-yl)-1-(3,4,5-trimethoxyphenyl)-2-propen-1-one], in the assay with HeLa S3 cells, the pIC50 was 8.43.

`COc1cc(C(=O)/C(=C/c2c[nH]c3ccccc23)Oc2ccccc2C)cc(OC)c1OC` [Compound 7, (Z)-3-(Indol-3-yl)-2-(2-methylphenoxy)-1-(3,4,5-trimethoxyphenyl)-2-propen-1-one]: the pIC50 with HeLa S3 cells was 7.17.

As to `COc1cc(C(=O)/C(=C/c2c[nH]c3ccccc23)Oc2ccc(Br)cc2)cc(OC)c1OC` [Compound 8, (Z)-2-(4-Bromophenoxy)-3-(indol-3-yl)-1-(3,4,5-trimethoxyphenyl)-2-propen-1-one], the pIC50 with HeLa S3 cells is 7.21.

Turning to `COc1cc(C(=O)/C(=C/c2c[nH]c3ccccc23)SC)cc(OC)c1OC` [Compound 9, (Z)-3-(Indol-3-yl)-2-methylthio-1-(3,4,5-trimethoxyphenyl)-2-propen-1-one], the pIC50 with HeLa S3 cells is 8.66.

Regarding `COc1cc(C(=O)/C(=C/c2c[nH]c3cc(C)ccc23)SCCO)cc(OC)c1OC` [Compound 13, (Z)-2-(2-Hydroxyethylthio)-3-(6-methylindol-3-yl)-1-(3,4,5-trimethoxyphenyl)-2-propen-1-one], in the assay with HeLa S3 cells, the pIC50 is 8.60.

Regarding `COC(=O)CS/C(=C\c1c[nH]c2ccccc12)C(=O)c1cc(OC)c(OC)c(OC)c1` [Compound 16, (Z)-3-(Indol-3-yl)-2-methoxycarbonylmethylthio-1-(3,4,5-trimethoxyphenyl)-2-propen-1-one], in the assay with HeLa S3 cells, the pIC50 is 8.33.

Take `COc1cc(C(=O)/C(=C/c2c[nH]c3ccccc23)CCC(O)CO)cc(OC)c1OC` (stereo not drawn) [Compound 19, (E)-2-(3,4-Dihydroxybutyl)-3-(indol-3-yl)-1-(3,4,5-trimethoxyphenyl)-2-propen-1-one]: in the assay with HeLa S3 cells, the negative-log IC50 (pIC50) is 8.68.

Take `COc1cc(C(=O)/C(=C/c2c[nH]c3cc(C)ccc23)CCC(O)CO)cc(OC)c1OC` (stereo not drawn) [Compound 20, (E)-2-(3,4-Dihydroxybutyl)-3-(6-methylindol-3-yl)-1-(3,4,5-trimethoxyphenyl)-2-propen-1-one]: the pIC50 with HeLa S3 cells was 8.25.

For `COc1cc(C(=O)/C(=C/c2c[nH]c3ccccc23)SCC(O)CO)cc(OC)c1OC` (stereo not drawn) [Compound 21, (Z)-2-(2,3-Dihydroxypropylthio)-3-(indol-3-yl)-1-(3,4,5-trimethoxyphenyl)-2-propen-1-one], in the assay with T-Cell Proliferation (concentration 10^-7 M, read-out: Suppression rate(%)), the inhibition at 0.1 µM amounted to 107%. In the assay on T-Cell Proliferation (concentration 10^-8 M, read-out: Suppression rate(%)), the inhibition at 0.01 µM was found to be 106%. The inhibition at 0.001 µM in the assay on T-Cell Proliferation (concentration 10^-9 M, read-out: Suppression rate(%) (converted)) was 7.8%. For the same compound, the “Suppression rate(%)” value is 15 (3.0) % in assay [1] (setting [3]), 57 (10) % in assay [1] (setting [4]), 8.5 (3.0) % in assay [2] (setting [3]) and 69 (10) % in assay [2] (setting [4]). Also, the pIC50 in the assay with HeLa S3 cells is 8.32.

Regarding `COc1cc(C(=O)/C(=C/c2cn(C)c3ccccc23)SCC(O)CO)cc(OC)c1OC` (stereo not drawn) [Compound 22, (Z)-2-(2,3-Dihydroxypropylthio)-3-(1-methylindol-3-yl)-1-(3,4,5-trimethoxyphenyl)-2-propen-1-one], the negative-log IC50 (pIC50) with HeLa S3 cells was 7.70.

On to `COc1cc(C(=O)/C(=C/c2c[nH]c3cccc(C)c23)SCC(O)CO)cc(OC)c1OC` (stereo not drawn) [Compound 23, (Z)-2-(2,3-Dihydroxypropylthio)-3-(4-methylindol-3-yl)-1-(3,4,5-trimethoxyphenyl)-2-propen-1-one], for which the pIC50 with HeLa S3 cells was 7.72.

Turning to `COc1cc(C(=O)/C(=C/c2c[nH]c3cccc(Cl)c23)SCC(O)CO)cc(OC)c1OC` (stereo not drawn) [Compound 24, (Z)-3-(4-Chloroindol-3-yl)-2-(2,3-dihydroxypropylthio)-1-(3,4,5-trimethoxyphenyl)-2-propen-1-one], in the assay with HeLa S3 cells, the pIC50 is 7.82.

For the compound `COc1cc(C(=O)/C(=C/c2c[nH]c3ccc(F)cc23)SCC(O)CO)cc(OC)c1OC` (stereo not drawn) [Compound 27, (Z)-2-(2,3-Dihydroxypropylthio)-3-(5-fluoroindol-3-yl)-1-(3,4,5-trimethoxyphenyl)-2-propen-1-one], the pIC50 with HeLa S3 cells was 8.20.

`COc1cc(C(=O)/C(=C/c2c[nH]c3cc(C)ccc23)SCC(O)CO)cc(OC)c1OC` (stereo not drawn) [Compound 28, (Z)-2-(2,3-Dihydroxypropylthio)-3-(6-methylindol-3-yl)-1-(3,4,5-trimethoxyphenyl)-2-propen-1-one]: the pIC50 in the assay on HeLa S3 cells was 8.20.

On to `CCc1ccc2c(/C=C(\SCC(O)CO)C(=O)c3cc(OC)c(OC)c(OC)c3)c[nH]c2c1` (stereo not drawn) [Compound 29, (Z)-2-(2,3-Dihydroxypropylthio)-3-(6-ethylindol-3-yl)-1-(3,4,5-trimethoxyphenyl)-2-propen-1-one], for which the pIC50 with HeLa S3 cells is 7.74.

Consider `COc1cc(C(=O)/C(=C/c2c[nH]c3cc(Cl)ccc23)SCC(O)CO)cc(OC)c1OC` (stereo not drawn) [Compound 31, (Z)-3-(6-Chloroindol-3-yl)-2-(2,3-dihydroxypropylthio)-1-(3,4,5-trimethoxyphenyl)-2-propen-1-one], for which, in the assay on HeLa S3 cells, the pIC50 was 8.14.

Consider `COc1cc(C(=O)/C(=C/c2c[nH]c3cc(F)ccc23)SCC(O)CO)cc(OC)c1OC` (stereo not drawn) [Compound 32, (Z)-2-(2,3-Dihydroxypropylthio)-3-(6-fluoroindol-3-yl)-1-(3,4,5-trimethoxyphenyl)-2-propen-1-one], for which, in the assay with HeLa S3 cells, the pIC50 is 8.23.

Turning to `COc1cc(C(=O)C(=Cc2c[nH]c3ccccc23)SCC(O)C(O)CO)cc(OC)c1OC` [Compound 35, 3-(Indol-3-yl)-2-[(2S),(3R)-2,3,4-trihydroxybutylthio]-1-(3,4,5-trimethoxyphenyl)-2-propen-1-one], the pIC50 with HeLa S3 cells is 8.36.

Regarding `COc1cc(C(=O)C(=Cc2c[nH]c3cc(C)ccc23)SC[C@@H](O)[C@H](O)CO)cc(OC)c1OC` [Compound 36, 3-(6-Methylindol-3-yl)-2-[(2S),(3R)-2,3,4-trihydroxybutylthio]-1-(3,4,5-trimethoxyphenyl)-2-propen-1-one], in the assay on HeLa S3 cells, the pIC50 is 8.28.

As for `COc1cc(C(=O)C(=Cc2c[nH]c3cc(C)ccc23)SC[C@H](O)[C@@H](O)CO)cc(OC)c1OC` [Compound 37, 3-(6-Methylindol-3-yl)-2-[(2R),(3S)-2,3,4-trihydroxybutylthio)-1-(3,4,5-trimethoxyphenyl)-2-propen-1-one], the pIC50 in the assay with HeLa S3 cells is 8.15.
